According to PubChem BioAssay AID256 (DTP/NCI, 2004):
“And” between values parts separate entries of the source, which are not always exact repeats. Equal values may be shown once. Inconclusive results and toxic doses are left out. Rule for the calls: active = survival T/C of 150% or more; inactive = T/C below 125% in these data.

System: CD2F1 mice, L1210 leukemia ip, survival T/C
Experiment: NCI In Vivo Anticancer Drug Screen. Data for tumor model L1210 Leukemia (intraperitoneal) in CD2F1 (CDF1) mice
Settings: higher = longer survival
How it was run: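 Compound-dosed mice with transplantable tumor versus matched vehicle controls; endpoint ratio T/C reported.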

[1] = endpoint: mean survival time, dose: 100.0 mg/kg/injection, schedule: Q04DX003 (ip), vehicle: saline with Tween-80
[2] = endpoint: mean survival time, dose: 200.0 mg/kg/injection, schedule: Q04DX003 (ip), vehicle: saline with Tween-80
[3] = endpoint: mean survival time, dose: 400.0 mg/kg/injection, schedule: Q04DX003 (ip), vehicle: saline with Tween-80
[4] = endpoint: mean survival time, dose: 100.0 mg/kg/injection, schedule: Q01DX001 (ip), vehicle: Klucel (hydroxypropylcellulose) (HPC)
[5] = endpoint: mean survival time, dose: 100.0 mg/kg/injection, schedule: Q01DX001 (ip), vehicle: saline with Tween-80
[6] = endpoint: mean survival time, dose: 200.0 mg/kg/injection, schedule: Q01DX001 (ip), vehicle: saline with Tween-80
[7] = endpoint: mean survival time, dose: 100.0 mg/kg/injection, schedule: Q04DX002 (ip), vehicle: saline with Tween-80
[8] = endpoint: mean survival time, dose: 25.0 mg/kg/injection, schedule: Q01DX009 (ip), vehicle: saline with Tween-80
[9] = endpoint: mean survival time, dose: 50.0 mg/kg/injection, schedule: Q01DX009 (ip), vehicle: saline with Tween-80
[10] = endpoint: mean survival time, dose: 100.0 mg/kg/injection, schedule: Q01DX009 (ip), vehicle: saline with Tween-80

Measured: T/C

C=C1COC(O)(C2OCOC(C3CC(=O)NC(=O)C3)C2O)C1C (stereo not given)
inactive: endpoint: median survival time, dose: 4.0 micrograms/kg/injection, schedule: Q01DX009 (ip), vehicle: water 103 % of control | endpoint: median survival time, dose: 8.0 micrograms/kg/injection, schedule: Q01DX009 (ip), vehicle: saline 110 % of control | endpoint: median survival time, dose: 8.0 micrograms/kg/injection, schedule: Q01DX009 (ip), vehicle: water 118 % of control and 102 % of control | endpoint: median survival time, dose: 16.0 micrograms/kg/injection, schedule: Q01DX009 (ip), vehicle: saline 116 % of control | endpoint: median survival time, dose: 16.0 micrograms/kg/injection, schedule: Q01DX009 (ip), vehicle: water 116 % of control | endpoint: median survival time, dose: 32.0 micrograms/kg/injection, schedule: Q01DX009 (ip), vehicle: saline 118 % of control

N#CCc1c(Cl)c(Cl)c(Cl)c(Cl)c1Cl
inactive: [1] 103 % of control | [2] 103 % of control | [3] 102 % of control

Cc1ccc(S(=O)(=O)NC(=O)C(Cc2ccccc2)c2ccccc2)cc1 (stereo not given)
inactive: endpoint: mean survival time, dose: 75.0 mg/kg/injection, schedule: Q01DX001 (ip), vehicle: other 96 % of control | endpoint: mean survival time, dose: 150.0 mg/kg/injection, schedule: Q01DX001 (ip), vehicle: other 98 % of control | endpoint: mean survival time, dose: 300.0 mg/kg/injection, schedule: Q01DX001 (ip), vehicle: other 96 % of control

CCC(C=O)(CC)CCC#N
inactive: endpoint: mean survival time, dose: 25.0 mg/kg/injection, schedule: Q01DX001 (ip), vehicle: Klucel (hydroxypropylcellulose) (HPC) 96 % of control | endpoint: mean survival time, dose: 50.0 mg/kg/injection, schedule: Q01DX001 (ip), vehicle: Klucel (hydroxypropylcellulose) (HPC) 103 % of control | [4] 87 % of control | [5] 103 % of control | [6] 100 % of control | endpoint: mean survival time, dose: 400.0 mg/kg/injection, schedule: Q01DX001 (ip), vehicle: saline with Tween-80 100 % of control

C=COC(=O)N1CCCCC1
inactive: endpoint: mean survival time, dose: 75.0 mg/kg/injection, schedule: Q01DX001 (ip), vehicle: saline 97 % of control | endpoint: mean survival time, dose: 150.0 mg/kg/injection, schedule: Q01DX001 (ip), vehicle: saline 98 % of control | endpoint: mean survival time, dose: 300.0 mg/kg/injection, schedule: Q01DX001 (ip), vehicle: saline 106 % of control

N=C(N)SCc1c(Cl)c(Cl)c(Cl)c(Cl)c1Cl
inactive: endpoint: mean survival time, dose: 25.0 mg/kg/injection, schedule: Q04DX002 (ip), vehicle: saline with Tween-80 103 % of control | endpoint: mean survival time, dose: 50.0 mg/kg/injection, schedule: Q04DX002 (ip), vehicle: saline with Tween-80 98 % of control | [7] 98 % of control

OCC1OC(n2cc(I)c3c2ncn2ccnc32)C(O)C1O (stereo not given)
inactive: endpoint: mean survival time, dose: 1.56 mg/kg/injection, schedule: Q01DX005 (ip), vehicle: water 92 % of control | endpoint: mean survival time, dose: 3.13 mg/kg/injection, schedule: Q01DX005 (ip), vehicle: water 92 % of control | endpoint: mean survival time, dose: 6.25 mg/kg/injection, schedule: Q01DX005 (ip), vehicle: water 97 % of control | endpoint: mean survival time, dose: 12.5 mg/kg/injection, schedule: Q01DX005 (ip), vehicle: water 104 % of control | endpoint: mean survival time, dose: 25.0 mg/kg/injection, schedule: Q01DX005 (ip), vehicle: water 100 % of control

CCOC(=O)Nc1cc(NCCc2ccccc2)c2[nH]cnc2n1
inactive: [4] 90 % of control | endpoint: mean survival time, dose: 200.0 mg/kg/injection, schedule: Q01DX001 (ip), vehicle: Klucel (hydroxypropylcellulose) (HPC) 87 % of control | endpoint: mean survival time, dose: 400.0 mg/kg/injection, schedule: Q01DX001 (ip), vehicle: Klucel (hydroxypropylcellulose) (HPC) 95 % of control

CN1CC2(c3ccccc3)CN(C)CC(c3ccccc3)(C1)C2=O
inactive: endpoint: mean survival time, dose: 6.25 mg/kg/injection, schedule: Q01DX009 (ip), vehicle: saline with Tween-80 98 % of control | endpoint: mean survival time, dose: 6.25 mg/kg/injection, schedule: Q04DX003 (ip), vehicle: saline with Tween-80 98 % of control | endpoint: mean survival time, dose: 12.5 mg/kg/injection, schedule: Q01DX009 (ip), vehicle: saline with Tween-80 95 % of control | endpoint: mean survival time, dose: 12.5 mg/kg/injection, schedule: Q04DX003 (ip), vehicle: saline with Tween-80 98 % of control | [8] 103 % of control | endpoint: mean survival time, dose: 25.0 mg/kg/injection, schedule: Q04DX003 (ip), vehicle: saline with Tween-80 92 % of control

CC(=O)NNC(=O)CC(O)(c1ccccc1)c1ccccc1
inactive: [7] 113 % of control | endpoint: mean survival time, dose: 200.0 mg/kg/injection, schedule: Q04DX002 (ip), vehicle: saline with Tween-80 95 % of control

Cc1ccc(NC(=O)OCCSc2ccc(Cl)cc2)cc1C
inactive: [9] 96 % of control | [10] 92 % of control

CN1CC(O)(C(O)C(O)C(O)CO)SC1=S (stereo not given)
inactive: endpoint: mean survival time, dose: 100.0 mg/kg/injection, schedule: Q01DX009 (ip), vehicle: saline sonified 98 % of control | [1] 100 % of control | endpoint: mean survival time, dose: 200.0 mg/kg/injection, schedule: Q01DX009 (ip), vehicle: saline sonified 101 % of control | [2] 93 % of control | endpoint: mean survival time, dose: 400.0 mg/kg/injection, schedule: Q01DX009 (ip), vehicle: saline sonified 109 % of control | [3] 89 % of control

N#CC(CC(=O)c1ccccc1)c1ccccc1 (stereo not given)
inactive: [1] 90 % of control | [2] 102 % of control | [3] 104 % of control

COc1ccc(N2CSC(=S)N(c3ccc(OC)cc3)C2)cc1
inactive: endpoint: mean survival time, dose: 100.0 mg/kg/injection, schedule: Q04DX003 (ip), vehicle: other 94 % of control

Cc1ccc(-n2nc(C3OCC(O)C3O)c3nc4cc(C)c(C)cc4nc32)cc1 (stereo not given)
inactive: endpoint: median survival time, dose: 10.0 mg/kg/injection, schedule: Q01DX005 (ip), vehicle: distilled water + Tween-80 98 % of control | endpoint: median survival time, dose: 20.0 mg/kg/injection, schedule: Q01DX005 (ip), vehicle: distilled water + Tween-80 97 % of control | endpoint: median survival time, dose: 40.0 mg/kg/injection, schedule: Q01DX005 (ip), vehicle: distilled water + Tween-80 103 % of control | endpoint: median survival time, dose: 80.0 mg/kg/injection, schedule: Q01DX005 (ip), vehicle: distilled water + Tween-80 97 % of control | endpoint: median survival time, dose: 160.0 mg/kg/injection, schedule: Q01DX005 (ip), vehicle: distilled water + Tween-80 98 % of control

COc1ccc(C(OC(=O)Oc2ccccc2)c2ccccc2)cc1 (stereo not given)
inactive: endpoint: mean survival time, dose: 100.0 mg/kg/injection, schedule: Q04DX002 (ip), vehicle: other 93 % of control | endpoint: mean survival time, dose: 200.0 mg/kg/injection, schedule: Q04DX002 (ip), vehicle: other 96 % of control | endpoint: mean survival time, dose: 400.0 mg/kg/injection, schedule: Q04DX002 (ip), vehicle: other 96 % of control

CC/C(=N/NS(=O)(=O)c1ccc(C)cc1)C(=O)O
inactive: endpoint: mean survival time, dose: 12.5 mg/kg/injection, schedule: Q01DX009 (ip), vehicle: Klucel (hydroxypropylcellulose) (HPC) 101 % of control | endpoint: mean survival time, dose: 25.0 mg/kg/injection, schedule: Q01DX009 (ip), vehicle: Klucel (hydroxypropylcellulose) (HPC) 98 % of control | endpoint: mean survival time, dose: 50.0 mg/kg/injection, schedule: Q01DX009 (ip), vehicle: Klucel (hydroxypropylcellulose) (HPC) 91 % of control | endpoint: mean survival time, dose: 100.0 mg/kg/injection, schedule: Q01DX009 (ip), vehicle: Klucel (hydroxypropylcellulose) (HPC) 96 % of control | endpoint: mean survival time, dose: 200.0 mg/kg/injection, schedule: Q01DX009 (ip), vehicle: Klucel (hydroxypropylcellulose) (HPC) 93 % of control | endpoint: mean survival time, dose: 400.0 mg/kg/injection, schedule: Q01DX009 (ip), vehicle: Klucel (hydroxypropylcellulose) (HPC) 91 % of control

COC(=O)CCC(C)C1CCC2C3C(O)CC4CC(O)CCC4(C)C3CC(O)C12C (stereo not given)
inactive: [8] 96 % of control | [9] 93 % of control | [10] 95 % of control and 100 % of control

CCOC(=O)CC1(O)CCCCC1
inactive: [10] 101 % of control | [1] 100 % of control | endpoint: mean survival time, dose: 200.0 mg/kg/injection, schedule: Q01DX009 (ip), vehicle: saline with Tween-80 101 % of control | [2] 101 % of control | endpoint: mean survival time, dose: 400.0 mg/kg/injection, schedule: Q01DX009 (ip), vehicle: saline with Tween-80 100 % of control | [3] 97 % of control

CN1CCC(=C(C#N)c2ccccc2)CC1
inactive: endpoint: mean survival time, dose: 12.5 mg/kg/injection, schedule: Q01DX009 (ip), vehicle: saline 100 % of control | endpoint: mean survival time, dose: 25.0 mg/kg/injection, schedule: Q01DX009 (ip), vehicle: saline 102 % of control

NC(=O)c1c(Cl)n(C2OC(CO)C(O)C2O)c2ncnc(N)c12 (stereo not given)
inactive: endpoint: mean survival time, dose: 1.0 mg/kg/injection, schedule: Q01DX005 (ip), vehicle: distilled water + Tween-80 103 % of control | endpoint: mean survival time, dose: 2.0 mg/kg/injection, schedule: Q01DX005 (ip), vehicle: distilled water + Tween-80 101 % of control | endpoint: mean survival time, dose: 4.0 mg/kg/injection, schedule: Q01DX005 (ip), vehicle: distilled water + Tween-80 106 % of control | endpoint: mean survival time, dose: 8.0 mg/kg/injection, schedule: Q01DX005 (ip), vehicle: distilled water + Tween-80 103 % of control | endpoint: mean survival time, dose: 16.0 mg/kg/injection, schedule: Q01DX005 (ip), vehicle: distilled water + Tween-80 114 % of control | endpoint: mean survival time, dose: 32.0 mg/kg/injection, schedule: Q01DX005 (ip), vehicle: distilled water + Tween-80 109 % of control

N=C(N)c1ccc(OCCOc2ccc(N)cc2)cc1
inactive: [5] 103 % of control | [6] 103 % of control
